Patent publication US12077503B2, “Substituted cyclic amides and their use as herbicides” (FMC CORPORATION, priority 2015, dated 2024)

Assays:
Format in all cases: in vivo
[1] = test system: ducksalad (Heteranthera limosa); assay: Test B flooded paddy test; details: Heteranthera limosa, 250 g ai/ha, Flood; 0 to 100 scale where 0 is no effect and 100 is complete control; read-out: Ducksalad plant response rating
Summary of the method: (§1)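 Rating scale 0–100 (visual, vs untreated controls) after a 13–15 d greenhouse period; application to the flood layer, 3 cm above soil and maintained; plants at 2-leaf stage when treated.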

rice (Oryra sativa) = assay: Test B flooded paddy test; details: Oryza sativa, 250 g ai/ha, Flood; 0 to 100 scale where 0 is no effect and 100 is complete control; read-out: Rice plant response rating
Summary of the method: as §1

[2] = test system: sedge, umbrella (small-flower umbrella sedge, Cyperus difformis); assay: Test B flooded paddy test; details: Cyperus difformis, 250 g ai/ha, Flood; 0 to 100 scale where 0 is no effect and 100 is complete control; read-out: Sedge, Umbrella plant response rating
Summary of the method: as §1

[3] = test system: barnyardgrass (Echinochloa crus-galli); assay: Test B flooded paddy test; details: Echinochloa crus-galli, 250 g ai/ha, Flood; 0 to 100 scale where 0 is no effect and 100 is complete control; read-out: Barnyardgrass plant response rating
Summary of the method: as §1

[4] = test system: ryegrass, Italian (Italian ryegrass, Lolium multiflorum); assay: Test A postemergence; details: Lolium multiflorum, post-emergence, 240 h
Summary of the method: (§2)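 Preemergence soil spray on seeded pots or post-emergence spray on 1–2 leaf plants, in loam–sand blend. Greenhouse ~10 d. Visual rating 0–100 against untreated plants.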

[5] = test system: wheat (Triticum aestivum); assay: Test A postemergence; details: Triticum aestivum, post-emergence, 240 h
Summary of the method: as §2

corn (Zea mays) = assay: Test A postemergence; details: Zea mays, post-emergence, 240 h
Summary of the method: as §2

[6] = test system: pigweed (Amaranthus retroflexus); assay: Test A postemergence; details: Amaranthus retroflexus, post-emergence, 240 h
Summary of the method: as §2

[7] = test system: blackgrass (Alopecurus myosuroides); assay: Test A postemergence; details: Alopecurus myosuroides, post-emergence, 240 h
Summary of the method: as §2

[8] = test system: giant foxtail (Setaria faberii); assay: Test A postemergence; details: Setaria faberi, post-emergence, 240 h
Summary of the method: as §2

Kochia (Kochia scoparia) [9] = assay: Test A postemergence; details: Bassia scoparia, post-emergence, 240 h
Summary of the method: as §2

[10] = test system: Galium (catchweed bedstraw, Galium aparine); assay: Test A postemergence; details: Galium, post-emergence, 240 h
Summary of the method: as §2

[11] = test system: ragweed (common ragweed, Ambrosia elatior); assay: Test A postemergence; details: Ambrosia artemisiifolia, post-emergence, 240 h
Summary of the method: as §2

[12] = test system: barnyardgrass (Echinochloa crus-galli); assay: Test A postemergence; details: Echinochloa crus-galli, post-emergence, 240 h
Summary of the method: as §2

[13] = test system: ryegrass, Italian (Italian ryegrass, Lolium multiflorum); assay: Test A preemergence; details: Lolium multiflorum, pre-emergence, 240 h, 0 to 100 scale where 0 is no effect and 100 is complete control, read-out: Ryegrass, Italian plant response rating
Summary of the method: as §2

[14] = test system: pigweed (Amaranthus retroflexus); assay: Test A preemergence; details: Amaranthus retroflexus, pre-emergence, 240 h, 0 to 100 scale where 0 is no effect and 100 is complete control, read-out: Pigweed plant response rating
[15] = test system: giant foxtail (Setaria faberii); assay: Test A preemergence; details: Setaria faberi, pre-emergence, 240 h, 0 to 100 scale where 0 is no effect and 100 is complete control, read-out: Foxtail, Giant plant response rating
Summary of the method: as §2

Kochia (Kochia scoparia) [16] = assay: Test A preemergence; details: Bassia scoparia, pre-emergence, 240 h, 0 to 100 scale where 0 is no effect and 100 is complete control, read-out: Kochia plant response rating
Summary of the method: as §2

[17] = test system: ragweed (common ragweed, Ambrosia elatior); assay: Test A preemergence; details: Ambrosia artemisiifolia, pre-emergence, 240 h, 0 to 100 scale where 0 is no effect and 100 is complete control, read-out: Ragweed plant response rating
Summary of the method: as §2

[18] = test system: barnyardgrass (Echinochloa crus-galli); assay: Test A preemergence; details: Echinochloa crus-galli, pre-emergence, 240 h, 0 to 100 scale where 0 is no effect and 100 is complete control, read-out: Barnyardgrass plant response rating
Summary of the method: as §2

[19] = 125 g ai/ha, preemergence, approx. 10 d

## CSc1ccccc1NC(=O)[C@H]1C(=O)N(C)C[C@@H]1c1ccc(F)c(Oc2ccccc2)c1 [Compound 1142]
[1]
  pest or weed control at 250 g/ha: 0%
Rice (Oryra sativa)
  pest or weed control at 250 g/ha: 0%
[2]
  pest or weed control at 250 g/ha: 0%
[3]
  pest or weed control at 250 g/ha: 0%
[4]; 125 g ai/ha, postemergence, visual injury vs untreated controls after approx. 10 d, 0 = no effect, 100 = complete control, read-out: Ryegrass, Italian plant response rating (0 to 100 scale)
  pest or weed control at 125 g/ha: 0%
[4]; Postemergence, 31 g ai/ha, visual injury after approx. 10 d, 0 to 100 scale, 0 no effect, 100 complete control, read-out: Plant response rating, Ryegrass, Italian
  pest or weed control at 31 g/ha: 0%
[5]; 125 g ai/ha, postemergence, visual injury vs untreated controls after approx. 10 d, 0 = no effect, 100 = complete control, read-out: Wheat plant response rating (0 to 100 scale)
  plant injury at 125 g/ha: 0%
[5]; Postemergence, 31 g ai/ha, visual injury after approx. 10 d, 0 to 100 scale, 0 no effect, 100 complete control, read-out: Plant response rating, Wheat
  plant injury at 31 g/ha: 0%
Corn (Zea mays); 125 g ai/ha, postemergence, visual injury on 0 to 100 scale (0 no effect, 100 complete control), approx. 10 d, read-out: Corn plant response rating
  plant injury at 125 g/ha: 0%
Corn (Zea mays); Postemergence, 31 g ai/ha, visual injury after approx. 10 d, 0 to 100 scale, 0 no effect, 100 complete control
  Corn plant response rating (crop injury, 0 = no effect, 100 = complete kill) at 31 g/ha: 0%
[6]; 125 g ai/ha, postemergence, visual injury vs untreated controls after approx. 10 d, 0 = no effect, 100 = complete control, read-out: Pigweed plant response rating (0 to 100 scale)
  pest or weed control at 125 g/ha: 30%
[6]; Postemergence, 31 g ai/ha, visual injury after approx. 10 d, 0 to 100 scale, 0 no effect, 100 complete control, read-out: Plant response rating, Pigweed
  pest or weed control at 31 g/ha: 0%
[7]; 125 g ai/ha, postemergence, visual injury on 0 to 100 scale (0 no effect, 100 complete control), approx. 10 d, read-out: Blackgrass plant response rating
  pest or weed control at 125 g/ha: 0%
[7]; Postemergence, 31 g ai/ha, visual injury after approx. 10 d, 0 to 100 scale, 0 no effect, 100 complete control, read-out: Plant response rating, Blackgrass
  pest or weed control at 31 g/ha: 0%
[8]; 125 g ai/ha, postemergence, visual injury on 0 to 100 scale (0 no effect, 100 complete control), approx. 10 d, read-out: Foxtail, Giant plant response rating
  pest or weed control at 125 g/ha: 60%
[8]; Postemergence, 31 g ai/ha, visual injury after approx. 10 d, 0 to 100 scale, 0 no effect, 100 complete control, read-out: Plant response rating, Foxtail, Giant
  pest or weed control at 31 g/ha: 0%
Kochia (Kochia scoparia) [9]; 125 g ai/ha, postemergence, visual injury on 0 to 100 scale (0 no effect, 100 complete control), approx. 10 d, read-out: Kochia plant response rating
  pest or weed control at 125 g/ha: 0%
Kochia (Kochia scoparia) [9]; Postemergence, 31 g ai/ha, visual injury after approx. 10 d, 0 to 100 scale, 0 no effect, 100 complete control, read-out: Plant response rating, Kochia
  pest or weed control at 31 g/ha: 0%
[10]; 125 g ai/ha, postemergence, visual injury on 0 to 100 scale (0 no effect, 100 complete control), approx. 10 d, read-out: Galium plant response rating
  pest or weed control at 125 g/ha: 30%
[10]; Postemergence, 31 g ai/ha, visual injury after approx. 10 d, 0 to 100 scale, 0 no effect, 100 complete control, read-out: Plant response rating, Galium
  pest or weed control at 31 g/ha: 0%
[11]; 125 g ai/ha, postemergence, visual injury vs untreated controls after approx. 10 d, 0 = no effect, 100 = complete control, read-out: Ragweed plant response rating (0 to 100 scale)
  pest or weed control at 125 g/ha: 0%
[11]; Postemergence, 31 g ai/ha, visual injury after approx. 10 d, 0 to 100 scale, 0 no effect, 100 complete control, read-out: Plant response rating, Ragweed
  pest or weed control at 31 g/ha: 0%
[12]; 125 g ai/ha, postemergence, visual injury on 0 to 100 scale (0 no effect, 100 complete control), approx. 10 d, read-out: Barnyardgrass plant response rating
  pest or weed control at 125 g/ha: 30%
[12]; Postemergence, 31 g ai/ha, visual injury after approx. 10 d, 0 to 100 scale, 0 no effect, 100 complete control, read-out: Plant response rating, Barnyardgrass
  pest or weed control at 31 g/ha: 0%
[13]; 31 g ai/ha, Preemergence
  pest or weed control at 31 g/ha: 0%
[13]; [19]
  pest or weed control at 125 g/ha: 0%
[14]; 31 g ai/ha, Preemergence
  pest or weed control at 31 g/ha: 0%
[14]; [19]
  pest or weed control at 125 g/ha: 60%
[15]; 31 g ai/ha, Preemergence
  pest or weed control at 31 g/ha: 30%
[15]; [19]
  pest or weed control at 125 g/ha: 90%
Kochia (Kochia scoparia) [16]; 31 g ai/ha, Preemergence
  pest or weed control at 31 g/ha: 0%
Kochia (Kochia scoparia) [16]; [19]
  pest or weed control at 125 g/ha: 0%
[17]; 31 g ai/ha, Preemergence
  pest or weed control at 31 g/ha: 0%
[17]; [19]
  pest or weed control at 125 g/ha: 0%
[18]; 31 g ai/ha, Preemergence
  pest or weed control at 31 g/ha: 0%
[18]; [19]
  pest or weed control at 125 g/ha: 30%
